Measurements as given in paper PMC11273936, “The Antimicrobial Peptide Capitellacin: Chemical Synthesis of Analogues to Probe the Role of Disulphide Bridges and Their Replacement with Vinyl Sulphides” (Antibiotics, 2024).
≈ marks a conversion by molar mass, not a printed value. Values belong to the compound of their own block, whether it stands above or below them.

Experiments:
C. albicans SC5314 = experiment: MIC assay, fungus (CLSI broth microdilution); assay type: cell-based; details: Candida albicans, RPMI 1640, 35 °C, 48 h, 0.5 x 10^3 to 2.5 x 10^3 CFU/mL, triplicate, three independent assays, read-out: Minimum Inhibitory Concentrations, C. albicans SC5314 (reference strain)
E. coli ATCC 25922 = experiment: MIC assay, bacteria (CLSI broth microdilution); assay type: cell-based, Escherichia coli; details: Gram negative, CA-MHB, 37 °C with shaking, 18 h, ~5 x10^5 CFU/mL, triplicate, three biological replicates
P. aeruginosa SVB-B9 = experiment: MIC assay, bacteria (CLSI broth microdilution); assay type: cell-based, Pseudomonas aeruginosa; details: Gram negative, CA-MHB, 37 °C with shaking, 18 h, ~5 x10^5 CFU/mL, triplicate, three biological replicates
S. aureus ATCC 25913 = experiment: MIC assay, bacteria (CLSI broth microdilution); assay type: cell-based; details: Staphylococcus aureus, ATCC25913, Gram positive, CA-MHB, 37 °C with shaking, 18 h, ~5 x10^5 CFU/mL, triplicate, three biological replicates, read-out: Minimum Inhibitory Concentrations, S. aureus ATCC 25913

MIC (C. albicans SC5314): 1 µM (≈ 0.924 µg/mL)
Compound: C[C@@H]1[C@H](O)[C@@H](C)/C=C/C=C/C=C/C=C/C=C/C=C/C=C/[C@H](O[C@@H]2O[C@H](C)[C@@H](O)[C@H](N)[C@@H]2O)C[C@@H]2O[C@](O)(C[C@@H](O)C[C@@H](O)[C@H](O)CC[C@@H](O)C[C@@H](O)CC(=O)O[C@H]1C)C[C@H](O)[C@H]2C(=O)O [AMB, amphotericin B]

Compound: polymyxin B [PMB]
Minimum Inhibitory Concentrations, E. coli ATCC 25922 (E. coli ATCC 25922): 0.125 µM
Minimum Inhibitory Concentrations, P. aeruginosa SVB-B9 (type strain) (P. aeruginosa SVB-B9): 0.125 µM

MIC (S. aureus ATCC 25913): 2 µM (≈ 0.731 µg/mL)
Compound: CC1(C)S[C@@H]2[C@H](NC(=O)[C@H](N)c3ccc(O)cc3)C(=O)N2[C@H]1C(=O)O [AMX, amoxicillin]
